The record followed here is US4056615A, “Lucknomycin and process for producing same” (U C B Societe Anonyme, priority 1975, dated 1977).

≈ marks a conversion by molar mass, not a printed value. Entries after “also recorded” stand apart in the source; their conditions may differ. Where two headings read alike, the source gives them in different places. Some results are limits rather than exact numbers.

Series [1] has as its system Aspergillus niger. The series is described as follows: MIC, complete inhibition of growth, Aspergillus niger. In kind it is cell-based. How it is done:
(§1) Lucknomycin is introduced at different dilutions into a peptonedextrose medium inoculated with the organism which is to be tested. After incubation for from 2 to 5 days at 28° C., the number of microgrammes of antibiotic per milliliter of medium is determined which must be used to obtain complete inhibition of growth (MIC) of the organism in question. In order to better point out the antifungal activity of Lucknomycin, it is compared with that of other known antifungal antibiotics.

Series [2] relates to Trichomoras vaginalis. As to the kind of experiment: MIC, complete inhibition of growth, Trichomonas vaginalis. The series is classed as cell-based. On the procedure:
as §1

The test system of series [3] is Candida albicans 11651. The series is described as follows: MIC, complete inhibition of growth, Candida albicans 11651. In kind it is cell-based. How it is done: as §1
The test system of series [4] is Trichophyton acuminatum. As to the kind of experiment: MIC, complete inhibition of growth, Trichophyton acuminatum. In kind it is cell-based. To be noted: for MIC: peptone-dextrose medium, 2 to 5 days at 28° C. How it is done: as §1
Series [5] deals with Trichophyton mentagrophytes. The series is described as follows: MIC, complete inhibition of growth, Trichophyton mentagrophytes. In kind it is cell-based. The note with it: for MIC: peptone-dextrose medium, 2 to 5 days at 28° C. How it is done: as §1
Series [6] deals with Candida albicans. The series is described as follows: Anti-Candida albicans activity, experimental Candida albicans vaginitis in female rats. To be noted: per tablet: lucknomycin 5 mg., clotrimazole 20 mg., nystatin 4 mg. In kind it is in vivo. The text has this:
The test is made in female rats on experimental Candida albicans vaginitis.

The test system of series [7] is Trichomonas vaginalis. The series is described as follows: Anti-Trichomonas vaginalis activity, subcutaneous Trichomonas vaginalis abscess in mice. In kind it is in vivo. The note with it: subcutaneous injections at the level of the abscess. An excerpt: This test is made in mice on a subcutaneous Trichomonas vaginalis abscess. Subcutaneous injections at the level of the abscess of a suspension (or solution) of the following products at various concentrations are used to determine the ED50.

The test system of series [8] is Candida krusei. The series is described as follows: MIC, complete inhibition of growth, Candida krusei. In kind it is cell-based. On the procedure: as §1
In series [9] the test system is mice. As to the kind of experiment: Toxicity, lethal dose LD50 in mice. The series is classed as in vivo. The text has this: Lethal dose LD50 in mice in mg./kg. body weight:
In series [10] the test system is Lactobacillus acidophilus. The series is described as follows: Antibacterial spectrum, Lactobacillus acidophilus. The series is classed as cell-based. To be noted: 10 mcg/ml, one day at 37° C. On the procedure: as §1
(§2) The experimental conditions are the same as for the determination of the fungal spectrum, except that the incubation time is one day at 37° C.

Series [11] relates to Streptococcus faecalis. As to the kind of experiment: Antibacterial spectrum, Streptococcus faecalis. The series is classed as cell-based. The note with it: 10 mcg/ml, one day at 37° C. On the procedure:
as §1, §2

Series [12] deals with Klebsiella pneumoniae. The series is described as follows: Antibacterial spectrum, Klebsiella pneumoniae. In kind it is cell-based. To be noted: 10 mcg/ml, one day at 37° C. On the procedure:
as §1, §2

Series [13] has as its system Pseudomonas aeruginosa. As to the kind of experiment: Antibacterial spectrum, Pseudomonas aeruginosa. In kind it is cell-based. The note with it: 10 mcg/ml, one day at 37° C. How it is done:
as §1, §2

Series [14] concerns Staphylococcus aureus. The series is described as follows: Antibacterial spectrum, Staphylococcus aureus. To be noted: 10 mcg/ml, one day at 37° C. The series is classed as cell-based. How it is done: as §1, §2
Series [15] deals with Proteus mirabilis. As to the kind of experiment: Antibacterial spectrum, Proteus mirabilis. The series is classed as cell-based. The note with it: 10 mcg/ml, one day at 37° C. On the procedure:
as §1, §2

Series [16] can be described thus: Solubility. In kind it is physicochemical.
Series [17] has as its system Escherichia coli. As to the kind of experiment: Antibacterial spectrum, Escherichia coli. In kind it is cell-based. To be noted: 10 mcg/ml, one day at 37° C. On the procedure: as §1, §2
For series [18], the system named is Trichomonas vaginalis. The series is described as follows: Antiprotozoal activity, killing of a culture in full growth of Trichomonas vaginalis. In kind it is cell-based. The note with it: 0.5 mcg./ml.; within about 30 minutes. On the procedure:
A concentration of 0.5 mcg./ml. of the antibiotic kills 50% of individuals of a culture in full growth of Trichomonas vaginalis within a period of about 30 minutes.

In series [19] the test system is Candida tropicalis. As to the kind of experiment: MIC, complete inhibition of growth, Candida tropicalis. In kind it is cell-based. How it is done:
as §1

The mark [20] stands for this setting: peptone-dextrose medium, 2 to 5 days at 28° C., read-out: MIC.
Where [21] appears, read: peptone-dextrose medium, 2 to 5 days at 28° C.
Setting [22] is: Candida albicans 11651, peptone-dextrose medium, 2 to 5 days at 28° C.

For orientation: MIC means the least concentration at which growth counts as inhibited. Take `C[C@@H]1C/C=C/C=C/C=C/C=C/[C@H](O[C@@H]2O[C@H](C)[C@@H](O)[C@H](N)[C@@H]2O)C[C@@H]2O[C@](O)(C[C@@H](O)C[C@H]3O[C@@H]3/C=C/C(=O)O1)C[C@H](O)[C@H]2C(=O)O` [Pimaricin]: the minimum inhibitory concentration (MIC) was 2.5 µg/mL (≈ 3.76 µM) in [1] (setting [20]); > 10 µg/mL in series [2] (setting [20]); 5 µg/mL (≈ 7.51 µM) in [3] (Candida albicans 11651, peptone-dextrose medium, 2 to 5 days at 28° C., read-out: MIC).

As to `C[C@@H]1[C@H](O)[C@@H](C)/C=C/C=C/CC/C=C/C=C/C=C/C=C/C(O[C@H]2O[C@H](C)[C@@H](O)[C@H](N)[C@@H]2O)CC2O[C@](O)(CC(O)C(O)CCC(O)CC(O)CC(O)CC(=O)O[C@H]1C)CC(O)C2C(=O)O` (some centres unmarked) [Nystatin, nystatin], the MIC is 5 µg/mL (≈ 5.4 µM) in series [1] (setting [21]); 25 µg/mL (≈ 27 µM) in [4]; > 10 µg/mL in series [2] (setting [21]); 25 µg/mL (≈ 27 µM) in series [5]; 2.5 µg/mL (≈ 2.7 µM) in [3] (setting [22]). In addition, the “Number of cured rats/infested rats” value in series [6] (after 4 administrations) was 5/11; in series [6] (after 8 administrations), 8/11; in [6] (after 12 administrations) it was 9/11.

Turning to Candicidin, in series [7], the “ED50 on Trichomonas vaginalis” value turned out to be 24 µg/mL.

Take `C[C@@H]1[C@H](O)[C@@H](C)/C=C/C=C/C=C/C=C/C=C/C=C/C=C/[C@H](O[C@@H]2O[C@H](C)[C@@H](O)[C@H](N)[C@@H]2O)C[C@@H]2O[C@](O)(C[C@@H](O)C[C@@H](O)[C@H](O)CC[C@@H](O)C[C@@H](O)CC(=O)O[C@H]1C)C[C@H](O)[C@H]2C(=O)O` [Amphotericin B]: the MIC in [1] is 0.6 µg/mL (≈ 0.649 µM); in series [2], > 10 µg/mL; in series [3] (Candida albicans, 11651), 1.25 µg/mL (≈ 1.35 µM).

In the case of `CNc1ccc(C(=O)CC(O)C2C/C=C/C=C/C=C/C=C/C=C/C=C/C=C/C(OC3OC(C)C(O)C(N)C3O)CC(O)C(C(=O)O)C(O)CC(O)CC(O)CC(O)CC(O)CC(O)CC(O)CC(O)CC(=O)O2)cc1` (centres unmarked) [Lucknomycin], the “activity against growth (in words)” value in series [1], in [8], in series [3] (Candida albicans) and in series [19] was “effective” in each case. The MIC in series [1] (setting [21]) was 0.5 µg/mL (≈ 0.471 µM); in series [4], 12.5 µg/mL (≈ 11.8 µM); in series [8] (setting [21]), 0.2 to 0.4 µg/mL; in series [2] (setting [21]) it was < 0.05 µg/mL; in [5], 25 µg/mL (≈ 23.6 µM); in series [3] (setting [22]) it was 0.1 to 0.2 µg/mL. In series [19] (setting [21]), this compound showed an MIC of 0.1 to 0.2 µg/mL. Also, the “activity (in words)” value in [4] was “moderately active”; in series [2] it was “effective”; in [5], “moderately active”. Besides, the LD50 in series [9] (intraperitoneal) is listed as 5-10 mg./kg. body weight; in [9] (intravenous), 10-20 mg./kg. body weight; in series [9] (oral), > 800 mg./kg. body weight; in [9] (subcutaneous), > 800 mg./kg. body weight. The inhibiting activity entry in series [10], in [11], in [12], in series [13], in series [14] and in [15] was “inactive; also recorded: does not exert an inhibiting activity” throughout. Further, the inhibiting activity entry in [17] is “inactive; also recorded: does not exert an inhibiting activity”. The “Number of cured rats/infested rats” value is 14/16 in [6] (after 4 administrations), 13/13 in [6] (after 8 administrations) and 12/12 in series [6] (after 12 administrations). Also, the Solubility result in [16] (in 60% methanol, concentrated ethanol (ethanol) and isopropanol) is reported as “less soluble”; in series [16] (in benzene, acetone, water, chloroform, absolute ethanol, cyclohexane, ethyl acetate and diethyl ether), “insoluble”; in [16] (in pyridine, dimethylformamide and dimethylacetamide), “soluble”. Moreover, the “ED50 on Trichomonas vaginalis” value in series [7] came out at 12 µg/mL (≈ 11.3 µM). The “individuals of a culture in full growth killed” value in series [18] was determined as 50%.

As for Trichomycin, in series [7], the “ED50 on Trichomonas vaginalis” value worked out at 43 µg/mL.

For the compound `Clc1ccccc1C(c1ccccc1)(c1ccccc1)n1ccnc1` [clotrimazole], the “Number of cured rats/infested rats” value in series [6] (after 4 administrations) was 17/18; in series [6] (after 8 administrations) it was 16/16; in [6] (after 12 administrations), 17/17.

With `Cc1ncc([N+](=O)[O-])n1CCO` [Metronidazole], in series [2] (setting [20]), the MIC came to 0.5 µg/mL (≈ 2.92 µM).
